Reference: US20020137929A1, “1 - (3-heterocyclylphenyl) isothiourea, -isourea, -guanidine and -amidine herbicidal agents” (Intellectual Property Department, BASF Aktiengesellschaft, priority 1998, published 2002)

Assays:
GALAP (Galium) [1] = assay: Postemergence herbicidal evaluation; type: in vivo, Galium aparine; settings: postemergence
How it was run: (§1)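 Two-week seedlings sprayed postemergence at 40 psi; formulation: 1:1 acetone/water, 0.5% TWEEN 20; application ≈0.0156–0.500 kg/ha. Greenhouse grow-out, then 0–9 visual scoring at 4–5 weeks.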

[2] = system: CHEAL (Lambsquarters, Common); assay: Postemergence herbicidal evaluation; type: in vivo, Chenopodium album; settings: postemergence
How it was run: as §1

GALAP (Galium) [3] = assay: Preemergence herbicidal evaluation; type: in vivo, Galium aparine; settings: rated 4-5 weeks after treatment
How it was run: (§2)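 Rating at 4–5 wk post-spray on a 0–9 visual scale vs control. Application: aqueous acetone, ~0.0156–0.500 kg/ha, to soil surface after seeding, preemergence.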

CYPSE (Flatsedge) [4] = assay: Preemergence weed control under flooded paddy conditions; type: in vivo, Cyperus serotinus; settings: rated 3-4 weeks after treatment
How it was run: (§3)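 Seeds or propagules sown in silt loam kept flooded 1.5-3 cm; compounds in 50/50 acetone/water pipetted into flood water at about 0.0313 to 0.500 kg/ha. Greenhouse; visual 0-9 rating versus untreated control 3-4 weeks after treatment.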

AMBEL (Ragweed, Common) = assay: Postemergence herbicidal evaluation; type: in vivo, Ambrosia artemisifolia; settings: postemergence
How it was run: as §1

SETVI (Foxtail, Green) = assay: Postemergence herbicidal evaluation; type: in vivo, Setaria viridis; settings: postemergence
How it was run: as §1

[5] = system: GLXMAW (Soybean, Williams); assay: Postemergence herbicidal evaluation; type: in vivo, Glycine max, (L.) Merr. cv Williams; settings: postemergence
How it was run: as §1

CASOB (Sicklepod) [6] = assay: Preemergence herbicidal evaluation; type: in vivo, Cassia obtusifolia; settings: rated 4-5 weeks after treatment
How it was run: as §2

ORYSAT (Rice, Tebonnet) = assay: Postemergence herbicidal evaluation; type: in vivo, Oryza sativa, (L.) Tebonnet; settings: postemergence
How it was run: as §1

CASOB (Sicklepod) [7] = assay: Postemergence herbicidal evaluation; type: in vivo, Cassia obtusifolia; settings: postemergence
How it was run: as §1

CYPIR (Rice Flatsedge) = assay: Preemergence weed control under flooded paddy conditions; type: in vivo, Cyperus iria; settings: rated 3-4 weeks after treatment
How it was run: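 Flooded-pot preemergence screen with silt loam and seeds in the upper 0.5 cm. Dose about 0.0313 to 0.500 kg/ha, delivered into flood water; visual 0-9 score after 3 to 4 weeks.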

ZEAMX (Corn, Field) = assay: Preemergence herbicidal evaluation; type: in vivo, Zea mays; settings: rated 4-5 weeks after treatment
How it was run: as §2

CYPSE (Flatsedge) [8] = assay: Postemergence weed control under flooded paddy conditions; type: in vivo, Cyperus serotinus; settings: postemergence weeds, 3-4 weeks after treatment
How it was run: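 Containers holding 3–5 cm weeds and rice at 1.5–2.5 leaves are flooded to 1.5–3 cm above soil. Compound in 50/50 v/v aqueous/acetone is then added directly to the water, about 0.0313–0.500 kg/ha. Plants are kept in the greenhouse and rated 0–9 visually at 3–4 weeks.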

[9] = system: SAGPY (Arrowhead (Pygmaea)); assay: Preemergence weed control under flooded paddy conditions; type: in vivo, Sagittaria pygmaea; settings: rated 3-4 weeks after treatment
How it was run: as §3

ECHCG (Barnyardgrass) = assay: Postemergence herbicidal evaluation; type: in vivo, Echinochloa crus-galli; settings: postemergence
How it was run: as §1

`CCC1SC(=Nc2cc(-n3c(=O)cc(C(F)(F)F)n(C)c3=O)c(F)cc2Cl)N(C)C1=O` (stereo not drawn) [Compound 10] gave a GALAP herbicidal rating (GALAP (Galium) [1]; rate 0.0156 kg/ha) of 1.0, a GALAP herbicidal rating (GALAP (Galium) [1]; rate 0.0313 kg/ha) of 2.0 and a GALAP herbicidal rating (GALAP (Galium) [1]; rate 0.0625 kg/ha) of 3.5. For the same molecule, the GALAP herbicidal rating (GALAP (Galium) [1]; rate 0.1250 kg/ha) was 4.5, the CHEAL herbicidal rating ([2]; rate 0.0156 kg/ha) was 7.0 and the CHEAL herbicidal rating ([2]; rate 0.0313 kg/ha) was 7.0. For the same molecule, the CHEAL herbicidal rating ([2]; rate 0.0625 kg/ha) was 9.0, the CHEAL herbicidal rating ([2]; rate 0.1250 kg/ha) was 9.0 and the “GALAP preemergence herbicidal rating” value (GALAP (Galium) [3]; rate 0.0156 kg/ha) was 0.5. The “GALAP preemergence herbicidal rating” value (GALAP (Galium) [3]; rate 0.0313 kg/ha) was 2.0, the “GALAP preemergence herbicidal rating” value (GALAP (Galium) [3]; rate 0.0625 kg/ha) was 4.5 and the “GALAP preemergence herbicidal rating” value (GALAP (Galium) [3]; rate 0.1250 kg/ha) was 9.0. For the same molecule, the “GALAP preemergence herbicidal rating” value (GALAP (Galium) [3]; rate 0.2500 kg/ha) was 9.0, the “Herbicidal rating CYPSE” value (CYPSE (Flatsedge) [4]; 0.0313 kg/ha) was 0.0 and the “Herbicidal rating CYPSE” value (CYPSE (Flatsedge) [4]; 0.0625 kg/ha) was 0.0. The “Herbicidal rating CYPSE” value (CYPSE (Flatsedge) [4]; 0.1250 kg/ha) was 0.0, the “Herbicidal rating CYPSE” value (CYPSE (Flatsedge) [4]; 0.2500 kg/ha) was 0.0 and the AMBEL herbicidal rating (AMBEL (Ragweed, Common); rate 0.0156 kg/ha) was 0.5. It also gave an AMBEL herbicidal rating (AMBEL (Ragweed, Common); rate 0.0313 kg/ha) of 1.0, an AMBEL herbicidal rating (AMBEL (Ragweed, Common); rate 0.0625 kg/ha) of 2.0 and an AMBEL herbicidal rating (AMBEL (Ragweed, Common); rate 0.1250 kg/ha) of 4.5. For the same molecule, the SETVI herbicidal rating (SETVI (Foxtail, Green); rate 0.0156 kg/ha) was 0.0, the SETVI herbicidal rating (SETVI (Foxtail, Green); rate 0.0313 kg/ha) was 0.0 and the SETVI herbicidal rating (SETVI (Foxtail, Green); rate 0.0625 kg/ha) was 1.0. It also gave an SETVI herbicidal rating (SETVI (Foxtail, Green); rate 0.1250 kg/ha) of 3.0, a GLXMAW herbicidal rating ([5]; rate 0.0156 kg/ha) of 4.0 and a GLXMAW herbicidal rating ([5]; rate 0.0313 kg/ha) of 4.5. The GLXMAW herbicidal rating ([5]; rate 0.0625 kg/ha) was 5.3, the GLXMAW herbicidal rating ([5]; rate 0.1250 kg/ha) was 5.8 and the “CASOB preemergence herbicidal rating” value (CASOB (Sicklepod) [6]; rate 0.0156 kg/ha) was 0.0. The “CASOB preemergence herbicidal rating” value (CASOB (Sicklepod) [6]; rate 0.0313 kg/ha) was 0.7, the “CASOB preemergence herbicidal rating” value (CASOB (Sicklepod) [6]; rate 0.0625 kg/ha) was 0.7 and the “CASOB preemergence herbicidal rating” value (CASOB (Sicklepod) [6]; rate 0.1250 kg/ha) was 1.3. For the same molecule, the “CASOB preemergence herbicidal rating” value (CASOB (Sicklepod) [6]; rate 0.2500 kg/ha) was 3.3, the ORYSAT herbicidal rating (ORYSAT (Rice, Tebonnet); rate 0.0156 kg/ha) was 1.8 and the ORYSAT herbicidal rating (ORYSAT (Rice, Tebonnet); rate 0.0313 kg/ha) was 2.5. For the same molecule, the ORYSAT herbicidal rating (ORYSAT (Rice, Tebonnet); rate 0.0625 kg/ha) was 2.5, the ORYSAT herbicidal rating (ORYSAT (Rice, Tebonnet); rate 0.1250 kg/ha) was 3.0 and the CASOB herbicidal rating (CASOB (Sicklepod) [7]; rate 0.0156 kg/ha) was 0.0. The CASOB herbicidal rating (CASOB (Sicklepod) [7]; rate 0.0313 kg/ha) was 0.0, the CASOB herbicidal rating (CASOB (Sicklepod) [7]; rate 0.0625 kg/ha) was 0.5 and the CASOB herbicidal rating (CASOB (Sicklepod) [7]; rate 0.1250 kg/ha) was 3.0. The “Herbicidal rating CYPIR” value (CYPIR (Rice Flatsedge); 0.0313 kg/ha) was 0.0, the “Herbicidal rating CYPIR” value (CYPIR (Rice Flatsedge); 0.0625 kg/ha) was 0.0 and the “Herbicidal rating CYPIR” value (CYPIR (Rice Flatsedge); 0.1250 kg/ha) was 2.0. For the same molecule, the “Herbicidal rating CYPIR” value (CYPIR (Rice Flatsedge); 0.2500 kg/ha) was 4.0, the “ZEAMX preemergence herbicidal rating” value (ZEAMX (Corn, Field); rate 0.0156 kg/ha) was 4.7 and the “ZEAMX preemergence herbicidal rating” value (ZEAMX (Corn, Field); rate 0.0313 kg/ha) was 6.7. The “ZEAMX preemergence herbicidal rating” value (ZEAMX (Corn, Field); rate 0.0625 kg/ha) was 7.0, the “ZEAMX preemergence herbicidal rating” value (ZEAMX (Corn, Field); rate 0.1250 kg/ha) was 7.3 and the “ZEAMX preemergence herbicidal rating” value (ZEAMX (Corn, Field); rate 0.2500 kg/ha) was 8.0. For the same molecule, the “Herbicidal rating CYPSE” value (CYPSE (Flatsedge) [8]; rate 0.0313 kg/ha) was 0.0, the “Herbicidal rating CYPSE” value (CYPSE (Flatsedge) [8]; rate 0.0625 kg/ha) was 0.0 and the “Herbicidal rating CYPSE” value (CYPSE (Flatsedge) [8]; rate 0.1250 kg/ha) was 0.0. For the same molecule, the “Herbicidal rating CYPSE” value (CYPSE (Flatsedge) [8]; rate 0.2500 kg/ha) was 0.0, the “Herbicidal rating SAGPY” value ([9]; 0.0313 kg/ha) was 0.0 and the “Herbicidal rating SAGPY” value ([9]; 0.0625 kg/ha) was 0.0. For the same molecule, the “Herbicidal rating SAGPY” value ([9]; 0.1250 kg/ha) was 0.0, the “Herbicidal rating SAGPY” value ([9]; 0.2500 kg/ha) was 0.0 and the ECHCG herbicidal rating (ECHCG (Barnyardgrass); rate 0.0156 kg/ha) was 0.0. For the same molecule, the ECHCG herbicidal rating (ECHCG (Barnyardgrass); rate 0.0313 kg/ha) was 0.0, the ECHCG herbicidal rating (ECHCG (Barnyardgrass); rate 0.0625 kg/ha) was 0.0 and the ECHCG herbicidal rating (ECHCG (Barnyardgrass); rate 0.1250 kg/ha) was 1.0.
